Structures can show the parent of a compound that is named as a salt.
Tests used:
[1] = target: acyl-CoA:cholesterol acyltransferase (ACAT); assay: in vitro ACAT inhibition (LAI): radiolabeled cholesterol oleate formed from radiolabeled oleic acid in rat liver microsomes; type: biochemical; details: concentration required to inhibit enzyme activity by 50%
Experimental: The ability of representative compounds of the present invention to inhibit ACAT was measured using an in vitro test more fully described in Field FJ, Salone RG, Biochemica et Biophysica, 1982;712:557-570. The test assesses the ability of a test compound to inhibit the acylation of cholesterol by oleic acid by measuring the amount of radiolabeled cholesterol oleate formed from radiolabeled oleic acid in a tissue preparation containing rat liver microsomes.

[2] = in vivo screen APCC: blood cholesterol in rats fed overnight a high fat, high cholesterol (PCC) diet; details: male Sprague-Dawley rats, dosed at 4 PM, PCC diet with 0.5% cholic acid overnight, blood sampled 8 AM, dose not given
Source text: In one in vivo screen designated APCC, male Sprague-Dawley rats (200 to 225 g) were randomly divided into treatment groups and dosed at 4 PM with either vehicle (CMC/Tween) or suspensions of compounds in vehicle. The normal chow diet was then replaced with a high fat, high cholesterol diet (designated PCC) containing 0.5% cholic acid. The rats consumed this diet ad libitum during the night and were sacrificed at 8 AM to obtain blood samples for cholesterol analysis using standard procedures. Statistical differences between mean cholesterol values for the same vehicle were determined using analysis of variance followed by Fisher's least significant test.

Compound | IC50 [1] | % Change (mg/dl) in cholesterol [2] | IC50 ([1]; sodium salt) | % Change (mg/dl) in cholesterol ([2]; sodium salt)
CC(C)c1cccc(C(C)C)c1OS(=O)(=O)NC(=O)C(=O)c1ccccc1 [Example 22, sulfamic acid(oxophenylacetyl)-2,6-bis(1-methylethyl)phenyl ester] | 50 µM | -23% | – | –
CC(C)c1cccc(C(C)C)c1OS(=O)(=O)NC(=O)C12CC3CC(CC(C3)C1)C2 [Example 12] | – | -5% | – | –
CC(C)c1cccc(C(C)C)c1OS(=O)(=O)NC(=O)C1CCc2ccccc2C1 (centres unmarked) [Example 29, sulfamic acid[(1,2,3,4-tetrahydro-2-naphthyl)carbonyl]-2,6-bis(1-methylethyl)phenylester] | 15 µM | -9% | – | –
CCC(C)C(C(=O)NS(=O)(=O)Oc1c(C(C)C)cccc1C(C)C)c1ccccc1 (centres unmarked) [Example 45, sulfamic acid(3-methyl-1-oxo-2-phenylpentyl)-2,6-bis(1-methylethyl)phenyl ester sodium salt] | – | – | 5.6 µM | -63%
CC(C)c1cccc(C(C)C)c1OS(=O)(=O)NC(=O)CC1CCCCC1 [Example 26, sulfamic acid(cyclohexylacetyl)-2,6-bis(1-methylethyl)phenyl ester] | 28 µM | -26% | – | –
CC(C)c1cc(C(C)C)c(CCC(=O)NS(=O)(=O)Oc2c(C(C)C)cccc2C(C)C)c(C(C)C)c1 [Example 41, sulfamic acid[1-oxo-3-[2,4,6-tris(1-methylethyl)phenyl]propyl]-2,6-bis(1-methylethyl)phenyl ester] | 28 µM | -73% | – | –
CC(C)c1cccc(C(C)C)c1OS(=O)(=O)NC(=O)C(c1ccc(Cl)cc1)c1ccc(Cl)cc1 [Example 35, sulfamic acid[bis-(4-chlorophenyl)acetyl]-2,6-bis(1-methylethyl)phenyl ester] | 8.9 µM | -9% | – | –
CC(C)c1cccc(C(C)C)c1OS(=O)(=O)NC(=O)C(c1ccccc1)(c1ccccc1)c1ccccc1 [Example 28, sulfamic acid(triphenylacetyl)-2,6-bis(1-methylethyl)phenyl ester] | 6 µM | -30% | – | –
CC(C)c1cccc(C(C)C)c1OS(=O)(=O)NC(=O)CC(c1ccccc1)c1ccccc1 [Example 13, sulfamic acid(1-oxo-3,3-diphenylpropyl)-2,6-bis(1-methylethyl)phenyl ester] | 25 µM | -31% | – | –
CCCCCCCCCCCC(=O)NS(=O)(=O)Oc1c(C(C)C)cccc1C(C)C [Example 11, sulfamic acid(dodecanoyl)-2,6-bis(1-methylethyl)phenyl ester] | > 10 µM | -8% | – | –
CC(C)c1cc(C(C)C)c(CC(=O)NS(=O)(=O)Oc2c(-c3ccccc3)cccc2-c2ccccc2)c(C(C)C)c1 [Example 48, sulfamic acid[[2,4,6-tris(1-methylethyl)phenyl]acetyl]-2,6-bis(phenyl)phenyl ester] | 8.3 µM | -73% | – | –
CC(C)c1cc(C(C)C)c(CC(=O)NS(=O)(=O)Oc2c(C(C)C)cc(C(C)C)cc2C(C)C)c(C(C)C)c1 [Example 8, sulfamic acid[[2,4,6-tris(1-methylethyl)phenyl]acetyl]-2,4,6-tris(1-methylethyl)phenyl ester] | 21 µM | -66% | – | –
CC(C)c1cccc(C(C)C)c1OS(=O)(=O)NC(=O)C1c2ccccc2-c2ccccc21 [Example 37, sulfamic acid[(9H-fluoren-9yl)carbonyl]-2,6-bis(1-methylethyl)phenyl ester] | 16 µM | -50% | – | –
CC(C)c1cccc(C(C)C)c1OS(=O)(=O)NC(=O)C(C)c1ccccc1 (centres unmarked) [Example 24, sulfamic acid(1-oxo-2-phenylpropyl)-2,6-bis(1-methylethyl)phenyl ester] | 26 µM | -24% | – | –
CC(C)c1cccc(C(C)C)c1OS(=O)(=O)NC(=O)Cc1ccsc1 [Example 20, sulfamic acid[3-thiophenyl(acetyl)]-2,6-bis(1-methylethyl)phenyl ester] | > 50 µM | -19% | – | –
COc1ccc(OC)c(CC(=O)NS(=O)(=O)Oc2c(C(C)C)cccc2C(C)C)c1 [Example 16, sulfamic acid[2,5-dimethoxyphenyl(acetyl)]-2,6-bis(1-methylethyl)phenyl ester] | 36 µM | +10% | – | –
CC(C)c1cccc(C(C)C)c1OS(=O)(=O)NC(=O)C(Br)c1ccccc1 (centres unmarked) [Example 39, sulfamic acid[bromo(phenyl)acetyl]-2,6l-bis(1-methylethyl)phenyl ester] | 32 µM | +5% | – | –

Compound | IC50 [1] | % Change (mg/dl) in cholesterol [2] | IC50 ([1]; sodium salt) | % Change (mg/dl) in cholesterol ([2]; sodium salt)
CC(C)c1cccc(C(C)C)c1CC(=O)NS(=O)(=O)Oc1c(C(C)C)cccc1C(C)C [Example 1, sulfamic acid[[2,6-bis(1-methylethyl)phenyl]acetyl]-2,6-bis(1-methylethyl)phenyl ester] | 9.7 µM | -63% | – | –
CC(C)c1cc(C(C)C)c(CC(=O)NS(=O)(=O)Oc2c(C(C)C)cccc2C(C)C)c(C(C)C)c1 [Example 6, sulfamic acid[[2,4,6-tris(1-methylethyl)phenyl]acetyl]-2,6-bis(1-methylethyl)phenylester sodium salt] | – | – | – | -75%
COc1cc(OC)c(CC(=O)NS(=O)(=O)Oc2c(C(C)C)cccc2C(C)C)c(OC)c1 [Example 17, sulfamic acid[2,4,6-trimethoxyphenyl(acetyl)]-2,6-bis(1-methylethyl)phenyl ester] | > 50 µM | -40% | – | –
CCCCCCCCCC(=O)NS(=O)(=O)Oc1c(C(C)C)cccc1C(C)C [Example 10, sulfamic acid (decanoyl)-2,6-bis(1-methylethyl)phenyl ester] | – | -26% | – | –
CCC(C(=O)NS(=O)(=O)Oc1c(C(C)C)cccc1C(C)C)c1ccccc1 (centres unmarked) [Example 32, sulfamic acid(1-oxo-2-phenylbutyl)-2,6-bis(1-methylethyl)phenyl ester] | 8.9 µM | -48% | – | –
CC(C)c1cccc(C(C)C)c1OS(=O)(=O)NC(=O)[C@@H]1C[C@H]1c1ccccc1 (relative stereo) [Example 15, sulfamic acid trans-[(2-phenylcyclopropyl)carbonyl]-2,6-bis(1-methylethyl)phenyl ester] | – | -14% | – | –
CC(C)c1cccc(C(C)C)c1OS(=O)(=O)NC(=O)C(c1ccccc1)C1CCCCC1 (centres unmarked) [Example 33, sulfamic acid(cyclohexylphenylacetyl)-2,6-bis(1-methylethyl)phenyl ester] | 9.3 µM | -63% | – | –
CC(C)c1cccc(C(C)C)c1OS(=O)(=O)NC(=O)CCc1ccccc1 [Example 38, sulfamic acid(1-oxo-3-phenylpropyl)-2,6-bis(1-methylethyl)phenyl ester] | 31 µM | -16% | – | –
CC(C)c1cccc(C(C)C)c1OS(=O)(=O)NC(=O)CC12CC3CC(CC(C3)C1)C2 [Example 4, sulfamic acid[adamantaneacetyl]-2,6-bis[1-methylethyl]phenyl ester] | 13 µM | -47% | – | –
CC(C)c1cc(C(C)C)c(C=CC(=O)NS(=O)(=O)Oc2c(C(C)C)cccc2C(C)C)c(C(C)C)c1 [Example 40, sulfamic acid[1-oxo-3-[2,4,6-tris-(1-methylethyl)phenyl]-2-propenyl]-2,6-bis-(1-methylethyl)phenyl ester] | 32 µM | -54% | – | –
CC(C)c1cccc(C(C)C)c1OS(=O)(=O)NC(=O)C(c1ccccc1)C1CCCC1 (centres unmarked) [Example 25, sulfamic acid(cyclopentylphenylacetyl)-2,6-bis(1-methylethyl)phenyl ester] | 7.2 µM | -71% | – | –
CC(C)c1cccc(C(C)C)c1OS(=O)(=O)NC(=O)C1(c2ccccc2)CCCC1 [Example 30, sulfamic acid[(1-phenylcyclopentyl)carbonyl]-2,6-bis(1-methylethyl)phenyl ester] | 4.1 µM | -40% | – | –
CC(C)c1cccc(C(C)C)c1OS(=O)(=O)NC(=O)Cc1ccccc1 [Example 7, sulfamic acid(phenylacetyl)-2,6-bis(1-methylethyl)phenyl ester] | 47 µM | -17% | – | –
CC(C)c1cc(C(C)C)c(C(O)C(=O)NS(=O)(=O)Oc2c(C(C)C)cccc2C(C)C)c(C(C)C)c1 (centres unmarked) [Example 43, sulfamic acid[hydroxy[2,4,6-tris(1-methylethyl)phenyl]acetyl]-2,6-bis(1-methylethyl)phenyl ester] | 31 µM | -45% | – | –
CC(C)c1cccc(C(C)C)c1CC(=O)NS(=O)(=O)Oc1c(C(C)C)cccc1C(C)C [Example 2, sulfamic acid[[2,6-bis(1-methylethyl)phenyl]acetyl]-2,6-bis(1-methylethyl)phenyl ester sodium salt] | – | – | 12 µM | -62%
CC(C)c1cccc(C(C)C)c1OS(=O)(=O)NC(=O)Cc1ccccc1C(F)(F)F [Example 23, sulfamic acid[2-trifluoromethylphenyl(acetyl)]-2,6-bis(1-methylethyl)phenyl ester] | 12 µM | -19% | – | –

— patent US5491172A, “N-acyl sulfamic acid esters (or thioesters), N-acyl sulfonamides, and N-sulfonyl carbamic acid esters (or thioesters) as hypercholesterolemic agents” (Warner-Lambert Company, priority 1994, dated 1996)
